Results taken from PubChem BioAssay (NCI).
Where “and” joins values, the source holds several entries; their conditions need not be identical. Identical values can stand only once.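 Interpolation was linear, between the two tested concentrations surrounding the appropriate level; five concentrations were tested over 48 hours in 96-well plates. GI50 marks 50% less growth. TGI denotes the concentration required for complete inhibition of growth.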

Assays:
Assay in all cases: NCI tumour cell line growth inhibition, 48 h
786-0 renal = tested on: 786-0 renal
A498 renal = tested on: A498 renal
A549 NSCLC = tested on: A549 NSCLC
CCRF-CEM leukemia = tested on: CCRF-CEM leukemia
COLO 205 colon = tested on: COLO 205 colon
DLD-1 colon = tested on: DLD-1 colon
DMS 114 small cell lung = tested on: DMS 114 small cell lung
HCC-2998 colon = tested on: HCC-2998 colon
HCT-116 colon = tested on: HCT-116 colon
HCT-15 colon = tested on: HCT-15 colon
HL-60(TB) leukemia = tested on: HL-60(TB) leukemia
HOP-18 NSCLC = tested on: HOP-18 NSCLC
HOP-62 NSCLC = tested on: HOP-62 NSCLC
HS 578T breast = tested on: HS 578T breast
HT29 colon = tested on: HT29 colon
IGROV1 ovarian = tested on: IGROV1 ovarian
K-562 leukemia = tested on: K-562 leukemia
KM12 colon = tested on: KM12 colon
KM20L2 colon = tested on: KM20L2 colon
LOX IMVI melanoma = tested on: LOX IMVI melanoma
M14 melanoma = tested on: M14 melanoma
M19-MEL melanoma = tested on: M19-MEL melanoma
MALME-3M melanoma = tested on: MALME-3M melanoma
MCF7 breast = tested on: MCF7 breast
MOLT-4 leukemia = tested on: MOLT-4 leukemia
NCI-H226 lung = tested on: NCI-H226 lung

CCN(CC)CCOc1cccc2nc3c(cc12)Cn1c-3cc2c(c1=O)COC(=O)C2(O)CC (stereo not given) was tested, and the GI50 (786-0 renal) was 0.595 µM, the TGI (786-0 renal) was 11.7 µM and the GI50 (A498 renal) was 2.13 µM and 3.91 µM. The TGI (A498 renal) was 6.74 µM and 18.2 µM, the GI50 (A549 NSCLC) was 0.787 µM and 2.06 µM and the TGI (A549 NSCLC) was 20.4 µM and 13 µM. For the same compound, the GI50 (CCRF-CEM leukemia) was 0.0125 µM and 0.0735 µM, the TGI (CCRF-CEM leukemia) was 0.791 µM and the GI50 (COLO 205 colon) was 6.58 µM and 1.94 µM. For the same compound, the TGI (COLO 205 colon) was 21.8 µM and 30.5 µM, the GI50 (DLD-1 colon) was 10.9 µM and the TGI (DLD-1 colon) was 38.8 µM. The GI50 (DMS 114 small cell lung) was 0.139 µM and 0.206 µM, the GI50 (HCC-2998 colon) was 7.1 µM and the TGI (HCC-2998 colon) was 21.8 µM. The GI50 (HCT-116 colon) was 0.403 µM and 1.29 µM, the TGI (HCT-116 colon) was 10.9 µM and 14.2 µM and the GI50 (HCT-15 colon) was 5.14 µM and 8.13 µM. For the same compound, the TGI (HCT-15 colon) was 26.1 µM and 37.8 µM, the GI50 (HL-60(TB) leukemia) was 0.304 µM and the TGI (HL-60(TB) leukemia) was 1.95 µM. For the same compound, the GI50 (HOP-18 NSCLC) was 2.34 µM and 2.65 µM, the TGI (HOP-18 NSCLC) was 9.93 µM and 18.9 µM and the GI50 (HOP-62 NSCLC) was 0.356 µM. For the same compound, the TGI (HOP-62 NSCLC) was 2.63 µM, the GI50 (HS 578T breast) was 83.9 µM and the TGI (HS 578T breast) was > 100 µM. For the same compound, the GI50 (HT29 colon) was 2.19 µM and 2.44 µM, the TGI (HT29 colon) was 12.7 µM and 13.5 µM and the GI50 (IGROV1 ovarian) was 5.77 µM and 4.63 µM. The TGI (IGROV1 ovarian) was 21.6 µM and > 44.8 µM, the GI50 (K-562 leukemia) was 2.53 µM and the TGI (K-562 leukemia) was > 46.9 µM. For the same compound, the GI50 (KM12 colon) was 4.53 µM and 7.49 µM, the TGI (KM12 colon) was 18.5 µM and 25.6 µM and the GI50 (KM20L2 colon) was 2 µM. For the same compound, the TGI (KM20L2 colon) was 14.4 µM, the GI50 (LOX IMVI melanoma) was 0.429 µM and 0.508 µM and the TGI (LOX IMVI melanoma) was 11.3 µM and 12.1 µM. For the same compound, the GI50 (M14 melanoma) was 1.11 µM, the TGI (M14 melanoma) was 11.5 µM and the GI50 (M19-MEL melanoma) was 3.74 µM and 2.38 µM. For the same compound, the TGI (M19-MEL melanoma) was 18.5 µM and 17 µM, the GI50 (MALME-3M melanoma) was 11.1 µM and 12.3 µM and the TGI (MALME-3M melanoma) was 24.6 µM and 25 µM. For the same compound, the GI50 (MCF7 breast) was 0.182 µM and 0.449 µM, the TGI (MCF7 breast) was 14.9 µM and 22.4 µM and the GI50 (MOLT-4 leukemia) was 0.103 µM. For the same compound, the GI50 (NCI-H226 lung) was 0.963 µM and 2.23 µM and the TGI (NCI-H226 lung) was 10.9 µM and 16.8 µM.
